Assay results published in ChEMBL document CHEMBL1201862, “PubChem BioAssay data set” (2004).
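Each compound was tested at five concentrations against cells in 96-well plates for 48 hours. GI50 is the concentration that inhibits growth by half.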 The source made the active and inactive calls. Rule as the data show it: active = GI50 up to about 1.1 µM and inactive = higher.

Assays:
Test in all cases: NCI-60 cell line screen, 48 h
786-0 = system: 786-0
CAKI-1 = system: CAKI-1
DLD-1 = system: DLD-1
DMS-273 = system: DMS-273
DU-145 = system: DU-145
HCT-116 = system: HCT-116
HT-29 = system: HT-29
Hs-578T = system: Hs-578T
M14 = system: M14
MCF7 = system: MCF7
MOLT-4 = system: MOLT-4
NCI-H23 = system: NCI-H23
NCI/ADR-RES = system: NCI/ADR-RES
OVCAR-8 = system: OVCAR-8
RPMI-8226 = system: RPMI-8226
SF-268 = system: SF-268
SK-MEL-2 = system: SK-MEL-2
SK-MEL-5 = system: SK-MEL-5
SN12C = system: SN12C
SR = system: SR
SW-620 = system: SW-620
A498 = system: A498
A549 = system: A549
ACHN = system: ACHN
BT-549 = system: BT-549
CCRF-CEM = system: CCRF-CEM
COLO 205 = system: COLO 205
EKVX = system: EKVX
HCC 2998 = system: HCC 2998
HCT-15 = system: HCT-15
HL-60 = system: HL-60
HOP-62 = system: HOP-62
HOP-92 = system: HOP-92
IGROV-1 = system: IGROV-1
K562 = system: K562
KM12 = system: KM12
LOX IMVI = system: LOX IMVI
MDA-MB-231 = system: MDA-MB-231
MDA-MB-435 = system: MDA-MB-435
MDA-N = system: MDA-N
Malme-3M = system: Malme-3M
NCI-H226 = system: NCI-H226
NCI-H460 = system: NCI-H460
NCI-H522 = system: NCI-H522
OVCAR-3 = system: OVCAR-3
OVCAR-4 = system: OVCAR-4
OVCAR-5 = system: OVCAR-5
PC-3 = system: PC-3
RXF 393 = system: RXF 393
SF-295 = system: SF-295
SF-539 = system: SF-539
SK-MEL-28 = system: SK-MEL-28
SK-OV-3 = system: SK-OV-3
SNB-19 = system: SNB-19
SNB-75 = system: SNB-75
T47D = system: T47D
TK-10 = system: TK-10
U-251 = system: U-251
UACC-257 = system: UACC-257
UACC-62 = system: UACC-62
UO-31 = system: UO-31

With `COc1ccc2c(c1)-c1nn(CCCN(C)C)c3ccc([N+](=O)[O-])c(c13)N2` [PYRAZOLOACRIDINE] the GI50 (786-0) was 0.191 µM (active), the GI50 (CAKI-1) was 0.396 µM (active) and the GI50 (DLD-1) was 0.262 µM (active). For the same molecule, the GI50 (DMS-273) was 0.135 µM (active), the GI50 (DU-145) was 0.484 µM (active) and the GI50 (HCT-116) was 0.0986 µM (active). The GI50 (HT-29) was 0.137 µM (active), the GI50 (Hs-578T) was 0.603 µM (active) and the GI50 (M14) was 0.61 µM (active). The GI50 (MCF7) was 0.333 µM (active), the GI50 (MOLT-4) was 0.0662 µM (active) and the GI50 (NCI-H23) was 0.662 µM (active). For the same molecule, the GI50 (NCI/ADR-RES) was 0.0986 µM (active), the GI50 (OVCAR-8) was 0.118 µM (active) and the GI50 (RPMI-8226) was 0.305 µM (active). For the same molecule, the GI50 (SF-268) was 0.283 µM (active), the GI50 (SK-MEL-2) was 0.647 µM (active) and the GI50 (SK-MEL-5) was 0.536 µM (active). The GI50 (SN12C) was 0.199 µM (active), the GI50 (SR) was 0.173 µM (active) and the GI50 (SW-620) was 0.133 µM (active).

For `Cc1c(O)ccc2c(O)c(NC(=O)c3ccc4c(c3)CCC(C)(C)O4)c(=O)oc12` [CYCLONOVOBIOCIC ACID], the GI50 (786-0) was > 100 µM (inactive), the GI50 (A498) was 45.8 µM (inactive) and the GI50 (A549) was > 100 µM (inactive). The GI50 (ACHN) was > 100 µM (inactive), the GI50 (BT-549) was > 100 µM (inactive) and the GI50 (CAKI-1) was > 100 µM (inactive). For the same molecule, the GI50 (CCRF-CEM) was > 100 µM (inactive), the GI50 (COLO 205) was > 100 µM (inactive) and the GI50 (DU-145) was > 100 µM (inactive). The GI50 (EKVX) was > 100 µM (inactive), the GI50 (HCC 2998) was > 100 µM (inactive) and the GI50 (HCT-116) was > 100 µM (inactive). The GI50 (HCT-15) was greater than 100 µM, the GI50 (HL-60) was > 100 µM (inactive) and the GI50 (HOP-62) was > 100 µM (inactive). For the same molecule, the GI50 (HOP-92) was > 100 µM (inactive), the GI50 (HT-29) was > 100 µM (inactive) and the GI50 (Hs-578T) was > 100 µM (inactive). The GI50 (IGROV-1) was > 100 µM (inactive), the GI50 (K562) was > 100 µM (inactive) and the GI50 (KM12) was > 100 µM (inactive). The GI50 (LOX IMVI) was > 100 µM (inactive), the GI50 (MCF7) was > 100 µM (inactive) and the GI50 (MDA-MB-231) was > 100 µM (inactive). For the same molecule, the GI50 (MDA-MB-435) was > 100 µM (inactive), the GI50 (MDA-N) was > 100 µM (inactive) and the GI50 (MOLT-4) was > 100 µM (inactive). For the same molecule, the GI50 (Malme-3M) was > 100 µM (inactive), the GI50 (NCI-H226) was > 100 µM (inactive) and the GI50 (NCI-H23) was > 100 µM (inactive). For the same molecule, the GI50 (NCI-H460) was > 100 µM (inactive), the GI50 (NCI-H522) was > 100 µM (inactive) and the GI50 (NCI/ADR-RES) was > 100 µM (inactive). The GI50 (OVCAR-3) was > 100 µM (inactive), the GI50 (OVCAR-4) was > 100 µM (inactive) and the GI50 (OVCAR-5) was > 100 µM (inactive). For the same molecule, the GI50 (OVCAR-8) was > 100 µM (inactive), the GI50 (PC-3) was > 100 µM (inactive) and the GI50 (RPMI-8226) was > 100 µM (inactive). For the same molecule, the GI50 (RXF 393) was > 100 µM (inactive), the GI50 (SF-268) was > 100 µM (inactive) and the GI50 (SF-295) was > 100 µM (inactive). For the same molecule, the GI50 (SF-539) was > 100 µM (inactive), the GI50 (SK-MEL-28) was > 100 µM (inactive) and the GI50 (SK-MEL-2) was > 100 µM (inactive). The GI50 (SK-MEL-5) was > 100 µM (inactive), the GI50 (SK-OV-3) was > 100 µM (inactive) and the GI50 (SN12C) was > 100 µM (inactive). For the same molecule, the GI50 (SNB-19) was > 100 µM (inactive), the GI50 (SNB-75) was > 100 µM (inactive) and the GI50 (SR) was > 100 µM (inactive). The GI50 (SW-620) was > 100 µM (inactive), the GI50 (T47D) was > 100 µM (inactive) and the GI50 (TK-10) was > 100 µM (inactive). The GI50 (U-251) was > 100 µM (inactive), the GI50 (UACC-257) was > 100 µM (inactive) and the GI50 (UACC-62) was 90.6 µM (inactive). The GI50 (UO-31) was > 100 µM (inactive).

With `CCOC(=O)c1cccc(NC(=O)CCl)c1` the GI50 (786-0) was 1.9 µM (inactive), the GI50 (A498) was 15.2 µM (inactive) and the GI50 (A549) was 10.4 µM (inactive). For the same molecule, the GI50 (ACHN) was 3.48 µM (inactive), the GI50 (BT-549) was 4.45 µM (inactive) and the GI50 (CAKI-1) was 1.88 µM (inactive). For the same molecule, the GI50 (CCRF-CEM) was 3.21 µM (inactive), the GI50 (COLO 205) was 7.74 µM (inactive) and the GI50 (DU-145) was 9.44 µM (inactive). For the same molecule, the GI50 (EKVX) was 3.18 µM (inactive), the GI50 (HCC 2998) was 2.19 µM (inactive) and the GI50 (HCT-116) was 2.8 µM (inactive). The GI50 (HCT-15) was 2.75 µM, the GI50 (HL-60) was 3.94 µM (inactive) and the GI50 (HOP-62) was 2.44 µM (inactive). The GI50 (HOP-92) was 7.45 µM (inactive), the GI50 (HT-29) was 3.81 µM (inactive) and the GI50 (Hs-578T) was 2.93 µM (inactive). For the same molecule, the GI50 (IGROV-1) was 2.48 µM (inactive), the GI50 (K562) was 3.08 µM (inactive) and the GI50 (KM12) was 7.46 µM (inactive). For the same molecule, the GI50 (LOX IMVI) was 1.34 µM (inactive), the GI50 (M14) was 8.61 µM (inactive) and the GI50 (MCF7) was 2.26 µM (inactive). The GI50 (MDA-MB-231) was 4.57 µM (inactive), the GI50 (MDA-MB-435) was 2.38 µM (inactive) and the GI50 (MDA-N) was 3.92 µM (inactive). For the same molecule, the GI50 (MOLT-4) was 5.2 µM (inactive), the GI50 (Malme-3M) was 6.22 µM (inactive) and the GI50 (NCI-H226) was 6.55 µM (inactive). The GI50 (NCI-H23) was 3.22 µM (inactive), the GI50 (NCI-H460) was 1.19 µM (inactive) and the GI50 (NCI-H522) was 1.68 µM (inactive). For the same molecule, the GI50 (NCI/ADR-RES) was 3.61 µM (inactive), the GI50 (OVCAR-3) was 1.86 µM (inactive) and the GI50 (OVCAR-4) was 2.37 µM (inactive). The GI50 (OVCAR-5) was 7 µM (inactive), the GI50 (OVCAR-8) was 3.55 µM (inactive) and the GI50 (PC-3) was 6.1 µM (inactive). For the same molecule, the GI50 (RPMI-8226) was 3.99 µM (inactive), the GI50 (RXF 393) was 3 µM (inactive) and the GI50 (SF-268) was 2.11 µM (inactive). The GI50 (SF-295) was 12.3 µM (inactive), the GI50 (SF-539) was 2.34 µM (inactive) and the GI50 (SK-MEL-28) was 16.7 µM (inactive). The GI50 (SK-MEL-2) was 2.64 µM (inactive), the GI50 (SK-MEL-5) was 1.79 µM (inactive) and the GI50 (SK-OV-3) was 4.92 µM (inactive). For the same molecule, the GI50 (SN12C) was 2.01 µM (inactive), the GI50 (SNB-19) was 28.6 µM (inactive) and the GI50 (SNB-75) was 2.77 µM (inactive). The GI50 (SR) was 1.77 µM (inactive), the GI50 (SW-620) was 3.32 µM (inactive) and the GI50 (T47D) was 2.48 µM (inactive). For the same molecule, the GI50 (TK-10) was 6.03 µM (inactive), the GI50 (U-251) was 1.4 µM (inactive) and the GI50 (UACC-257) was 5.09 µM (inactive). The GI50 (UACC-62) was 1.52 µM (inactive) and the GI50 (UO-31) was 4.04 µM (inactive).
